Source: PubChem BioAssay (NCI)
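Step 1: Grow cells in 96-well plates. Step 2: Expose to compound for 48 hours at 5 concentrations. Step 3: Interpolate endpoints linearly; if unreached, use highest concentration. Here, GI50 denotes the concentration required for 50% inhibition of growth. TGI denotes the concentration required for complete inhibition of growth.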

Assays:
Assay in all cases: growth of human tumour cells (NCI), 48 h
TK-10 renal = tested on: TK-10 renal
HL-60(TB) leukemia = tested on: HL-60(TB) leukemia
786-0 renal = tested on: 786-0 renal
LOX IMVI melanoma = tested on: LOX IMVI melanoma
CCRF-CEM leukemia = tested on: CCRF-CEM leukemia
HCT-116 colon = tested on: HCT-116 colon
NCI-H23 lung = tested on: NCI-H23 lung
SK-MEL-28 melanoma = tested on: SK-MEL-28 melanoma
MALME-3M melanoma = tested on: MALME-3M melanoma
MCF7 breast = tested on: MCF7 breast

Compound	TGI (TK-10 renal)	TGI (HL-60(TB) leukemia)	TGI (786-0 renal)	TGI (LOX IMVI melanoma)	TGI (CCRF-CEM leukemia)	TGI (HCT-116 colon)	TGI (NCI-H23 lung)	TGI (SK-MEL-28 melanoma)	TGI (MALME-3M melanoma)	GI50 (TK-10 renal)	GI50 (786-0 renal)	GI50 (LOX IMVI melanoma)	GI50 (CCRF-CEM leukemia)	GI50 (HCT-116 colon)	GI50 (MALME-3M melanoma)	GI50 (MCF7 breast)	TGI (MCF7 breast)	GI50 (NCI-H23 lung)	GI50 (SK-MEL-28 melanoma)	GI50 (HL-60(TB) leukemia)
O=[P+](O)c1cc2ccccc2c2ccccc12	> 100 µM	> 100 µM	> 100 µM	> 100 µM	> 100 µM	> 100 µM	> 100 µM	> 100 µM												
O=C1[C@H]2ON(c3ccccc3)C(c3ccccc3F)[C@H]2C(=O)N1c1ccc(Cc2ccc(N3C(=O)[C@@H]4ON(c5ccccc5)C(c5ccccc5F)[C@@H]4C3=O)cc2)cc1 (stereo not given in full)		> 100 µM	> 100 µM	> 100 µM	> 100 µM		> 100 µM	> 100 µM	> 100 µM											
COc1cc2c(cc1OC)C(CC1(O)CCCCC1)N(S(=O)(=O)c1ccc(C)cc1)CC2 (stereo not given)	> 10 µM		> 10 µM	> 10 µM	> 10 µM	> 10 µM	> 10 µM	> 10 µM	> 10 µM	> 10 µM	> 10 µM	> 10 µM	> 10 µM	> 10 µM	> 10 µM	> 10 µM	> 10 µM	> 10 µM	> 10 µM	
COc1cc([C@H]2c3cc4c(cc3[C@H](NCc3ccc([N+](=O)[O-])cc3)C3COC(=O)[C@H]32)OCO4)cc(OC)c1O (stereo not given in full)	7.08 µM		2.78 µM	9.81 µM	> 100 µM	> 86.1 µM	1.91 µM	> 100 µM	17.3 µM											
CC1(C)N=C(N)N=C(N)N1c1ccc(CCc2ccc(Cl)cc2S(=O)(=O)F)c(Cl)c1		48.1 µM	> 100 µM	20.6 µM	44.4 µM	16.2 µM	> 100 µM	23.4 µM	60.3 µM		5.21 µM	4.04 µM	6.73 µM	2.56 µM	14.7 µM	3.64 µM	18.9 µM	6.51 µM	7.99 µM	13 µM
O=C(O)c1ccc([S-])cc1.[Au+].c1ccc(CN2[CH-]N(Cc3ccccc3)C(c3ccccc3)=C2c2ccccc2)cc1	1.98 µM	1.29 µM	1.59 µM	1.37 µM	2.72 µM	1.26 µM	1.21 µM	1.71 µM	0.797 µM	0.613 µM	0.376 µM	0.311 µM	0.356 µM	0.301 µM	0.249 µM			0.314 µM	0.43 µM	0.321 µM
O=c1cc(-c2ccccc2)nc(/C=C(\O)c2ccncc2)n1-c1ccccc1	> 100 µM	> 100 µM	> 100 µM	> 100 µM	> 100 µM	> 100 µM	> 100 µM	> 100 µM	> 100 µM											
CN1CCN(C(=O)c2c(NC(=O)NS(=O)(=O)c3ccccc3)sc3c2CCCCC3)CC1		> 100 µM	53 µM	84.9 µM	> 100 µM		52.1 µM				19.2 µM	30 µM	32.8 µM			52.7 µM	> 100 µM	24.3 µM		48.2 µM
C[C@]1(C(=O)O)N[C@H](C(=O)O)CS1	> 1000 µM		> 1000 µM	> 1000 µM	> 1000 µM	> 1000 µM	> 1000 µM	> 1000 µM	> 1000 µM	> 1000 µM	> 1000 µM	> 1000 µM	> 1000 µM	> 1000 µM	> 1000 µM	> 1000 µM	> 1000 µM	> 1000 µM	> 1000 µM	
CCOc1ccccc1N1C(=O)C(=O)C(c2nc3ccccc3o2)/C(=N\N)C1=O (stereo not given)	> 100 µM	> 100 µM	> 100 µM	> 100 µM	> 100 µM	> 100 µM	> 100 µM	> 100 µM	> 100 µM											
CSc1nc(SC)c2c(C(N)=S)[nH]nc2n1	63.5 µM		> 100 µM	62.7 µM	69.5 µM		66.3 µM	99.5 µM	88 µM											
CC(C)(c1ccc(Oc2ccc(C#N)c(C#N)c2)cc1)c1ccc(Oc2ccc(C#N)c(C#N)c2)cc1	> 100 µM	> 100 µM	> 100 µM	> 100 µM	> 100 µM	> 100 µM	> 100 µM	> 100 µM	> 100 µM	> 100 µM	> 100 µM	> 100 µM	> 100 µM	> 100 µM	> 100 µM			> 100 µM	> 100 µM	> 100 µM
CC1=C(C(=O)Nc2ccc([N+](=O)[O-])cc2)C(c2ccccc2O)C(C(=O)Nc2ccc([N+](=O)[O-])cc2)=C(C)N1	> 100 µM	48.2 µM	64.8 µM	34.5 µM	61.7 µM		66.7 µM	61.5 µM	49.4 µM											
CCOC(=O)c1cc2c(cn1)[nH]c1cccc(N)c12	> 100 µM	28.6 µM	> 100 µM	> 100 µM	> 100 µM	> 100 µM	> 100 µM	> 100 µM	> 100 µM											
Nc1nc(NC2C=C(CO)C(O)C2O)c([N+](=O)[O-])c(=O)[nH]1 (stereo not given)	> 100 µM		> 100 µM	> 100 µM	> 100 µM	> 100 µM	> 100 µM	> 100 µM	> 100 µM											
COc1ccc(C2=Nc3c/c(=C\c4c(O)[nH]c5ccc(Cl)cc45)ccc3=N2)cc1	4.42 µM	3.94 µM	3.81 µM		5.52 µM	3.1 µM		5.13 µM		2.45 µM	1.94 µM		1.97 µM	1.55 µM					1.59 µM	1.51 µM
CCCCN=C(NC#N)N(Cc1ccccc1)Cc1ccccc1	> 100 µM	49.6 µM	> 100 µM	29.7 µM	49.2 µM	39.5 µM	77.4 µM	81.2 µM	> 100 µM											
CC(C)(O)[C@@H]1CC[C@@]2(C)CCC[C@H](O)[C@H]2C1	> 100 µM	> 100 µM	> 100 µM	> 100 µM	> 100 µM	> 100 µM	> 100 µM	> 100 µM	> 100 µM											
